How the values were obtained:
retinal ganglion cells [1] = assay: Hypotonic swelling-induced calcium influx into retinal ganglion cells (Fura-2); assay type: cell-based; details: FIG. 17C
Description: Cells were labeled with fluorescent calcium indicator dye Fura-2 and exposed to hypotonic solutions in which extracellular sodium was replaced by the osmotically inert substance mannitol, as described in […] et al. (J Neurosci. 2011 May 11; 31(19):7089-101; PMID 21562271).

[2] = system: retinal neurons (RGCs) and glia (Müller cells); assay: Hypotonic stimuli: cell swelling (change in cell area) and [Ca++]i; assay type: cell-based
Description: FIG. 18A illustrates the effect of hypotonic stimuli on cell swelling as measured by change in cell area. Hypotonic stimuli were generated by replacing extracellular sodium levels to lower osmolarity from 300 mOsm to 190 mOsm.

retinal ganglion cells [3] = assay: In vivo intraocular injection of GSK, NeuN+ RGC count; details: intraocular GSK, 48 hours
Procedure: In this experiment, GSK (100-300 nM) was injected intraocularly with a Hamilton syringe. Retinas were isolated after 48 hours, fixed and labeled with the RGC marker antibody NeuN. NeuN-immunopositive somata in the ganglion cell layer, shown in the panel on the right, were counted. The bar graph represents quantification of NeuN^+ cells in the indicated experimental groups.

retinal ganglion cells [4] = assay: TUNEL assay of apoptotic cell death in retinas; assay type: cell-based; details: Compound 1 1 uM, RuR 10 μM
Procedure: Terminal deoxynucleotidyl transferase-mediated dUTP-biotin nick end labeling (TUNEL) is a common method for detecting fragmentation that results from apoptotic signaling cascades. Retinas were embedded, cryosectioned, and processed for the TUNEL assay following the protocol by Gavrieli et al. (1992). After 30 min. rehydration in 70% ethanol, 2×5 min. rinses in PBS and 1% Triton-X in 1% citrate buffer (pH 7.3), the slides were subjected to a final rinse in PBS. Slides were then incubated for 30 min. in the reaction buffer (30 mM Trizma-HCl, 140 mM cacodylate, 1.0 mM CaCl2, 0.2% Triton X-100, pH 7.2). Positive controls were treated with DNAse I (Roche Diagnostics; Branford, Conn.; 10 U/ml) in the reaction buffer. Next, slides were treated for 1 hour with 0.03 units/μl terminal transferase and 4 μM biotin-16-dUTP (Roche Diagnostics). The reaction was terminated in 30 mM Na+ citrate, 300 mM NaCl and 0.2% Triton X-100 in PBS (5 min.) and rinsed in PBS (2×5 min), exposed to 1% bovine serum albumin in PBS for 20 min and rinsed. Apoptotic cells were visualized with a confocal microscope (Zeiss LSM510) and categorized by size. […] This was blocked by RuR and by the TRPV4 antagonist Compound 1.

TRPV4 [5] = molecular target: T1, TRPV4 (Mus musculus, UniProt Q9EPK8); assay: GSK-evoked [Ca++]i in retinal Müller glial cells; assay type: cell-based; set-up: endogenous in cells; host or cells: retinal Müller glial cells
TRPV4 [6] = molecular target: T1, TRPV4; assay: AGB cation influx into retinal cells (anti-AGB antibody); assay type: cell-based; set-up: these two cell types express TRPV4 channels in the mouse retina; from tissue; host or cells: mouse retina (retinal ganglion cells and Müller glial cells); details: mouse retina
Procedure: FIG. 16 illustrates the effect of the TRPV4 agonist GSK on cation influx into mouse retinal cells of the mouse retina. The influx was determined using the anti-AGB antibody, as described by Marc R E (J Comp Neurol 407(1): 47-64, 1999). AGB is a membrane permeant cation that can flow through most known cation channels. Using an anti-AGB antibody, it can be determined where the cation flux occurs and, therefore, which cells are activated.

T1 sequence (Q9EPK8 whole entry): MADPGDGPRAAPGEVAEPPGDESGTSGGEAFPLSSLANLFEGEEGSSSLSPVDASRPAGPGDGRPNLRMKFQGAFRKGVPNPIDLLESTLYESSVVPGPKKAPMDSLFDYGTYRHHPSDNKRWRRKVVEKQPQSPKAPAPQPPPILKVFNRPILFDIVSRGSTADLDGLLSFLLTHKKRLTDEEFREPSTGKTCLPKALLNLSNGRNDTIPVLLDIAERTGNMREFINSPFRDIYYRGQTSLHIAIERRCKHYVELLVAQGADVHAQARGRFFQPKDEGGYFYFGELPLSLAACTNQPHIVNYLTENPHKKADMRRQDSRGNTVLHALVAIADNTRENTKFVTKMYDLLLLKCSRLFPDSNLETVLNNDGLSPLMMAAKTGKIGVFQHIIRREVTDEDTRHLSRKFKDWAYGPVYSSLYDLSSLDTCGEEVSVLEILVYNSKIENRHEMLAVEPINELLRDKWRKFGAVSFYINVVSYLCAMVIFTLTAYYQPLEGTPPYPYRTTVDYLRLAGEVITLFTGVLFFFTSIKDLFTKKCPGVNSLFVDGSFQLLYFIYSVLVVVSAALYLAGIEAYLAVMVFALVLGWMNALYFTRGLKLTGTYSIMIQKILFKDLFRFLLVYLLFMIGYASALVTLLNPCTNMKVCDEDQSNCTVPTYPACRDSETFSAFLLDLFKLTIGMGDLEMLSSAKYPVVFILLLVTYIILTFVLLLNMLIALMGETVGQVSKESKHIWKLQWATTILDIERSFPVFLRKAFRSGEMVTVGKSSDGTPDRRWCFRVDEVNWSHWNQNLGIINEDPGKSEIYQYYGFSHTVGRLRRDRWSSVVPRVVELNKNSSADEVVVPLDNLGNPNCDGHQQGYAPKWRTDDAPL

Cc1c(C(=O)Nc2cccc(C(F)(F)F)c2)cc(-c2ccccc2)n1CCCN1CCOCC1 [Compound 1, N-(3-(trifluoromethyl)phenyl)-2-methyl-1-(3-morpholinopropyl)-5-phenyl-1H-pyrrole-3-carboxamide]
pressure-dependent influx of calcium in RGCs (retinal ganglion cells [1]): prevents
hypotonic stimuli-induced increase in [Ca++]i ([2]; FIG. 18B): inhibited
cell swelling (change in cell area) ([2]; hypotonic stimuli, 300 mOsm to 190 mOsm): prevented hypotonic stimuli-mediated cell swelling to the same extent as BAPTA-AM
effect on GSK-induced degeneration of RGC (retinal ganglion cells [3]): blocked
apoptotic cell death induced by hypotonic swelling (TUNEL) (retinal ganglion cells [4]; 190 mOsm saline): block apoptotic cell death
apoptotic cell death induced by TRPV4 agonist GSK (TUNEL) (retinal ganglion cells [4]; GSK 100 nM): block apoptotic cell death
effect on GSK-evoked increase in [Ca++]i (TRPV4 [5]; retinal Müller glial cells): blocked
reversibility of effect on glial calcium levels (TRPV4 [5]; superfusion with control saline): reversible, as it can be washed out by 10 minute superfusion with control saline
effect on GSK-induced AGB cation influx (TRPV4 [6]): strongly antagonized

From US20150133411A1, “COMPOUNDS WITH TRPV4 ACTIVITY, COMPOSITIONS AND ASSOCIATED METHODS THEREOF” (The University of Utah Research Foundation, priority 2012, published 2015)
